Measured values published in publication PMC10889091, “Isolation, Characterization, Genome Annotation, and Evaluation of Tyrosinase Inhibitory Activity in Secondary Metabolites of Paenibacillus sp. JNUCC32: A Comprehensive Analysis through Molecular Docking and Molecular Dynamics Simulation” (International Journal of Molecular Sciences, 2024).
pIC50: −log10 of the molar value.

Target: T1, mushroom tyrosinase (Agaricus bisporus, UniProt C7FF04)
T1 construct: gene PPO3
Test: mushroom tyrosinase (Sigma T3824) assay with L-tyrosine, absorbance at […] nm
Assay type: biochemical

T1 sequence (C7FF04 2-392): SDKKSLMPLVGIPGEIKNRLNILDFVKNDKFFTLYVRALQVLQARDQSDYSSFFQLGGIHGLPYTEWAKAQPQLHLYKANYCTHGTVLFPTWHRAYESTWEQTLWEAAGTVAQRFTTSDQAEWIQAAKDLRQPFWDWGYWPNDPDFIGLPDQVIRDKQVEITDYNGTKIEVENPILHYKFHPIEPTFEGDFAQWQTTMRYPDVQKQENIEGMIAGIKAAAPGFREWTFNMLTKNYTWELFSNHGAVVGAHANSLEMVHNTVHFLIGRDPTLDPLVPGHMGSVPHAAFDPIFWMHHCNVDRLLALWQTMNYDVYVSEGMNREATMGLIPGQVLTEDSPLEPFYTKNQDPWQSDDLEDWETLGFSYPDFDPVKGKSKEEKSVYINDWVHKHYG

pIC50: 3.00
Structure (SMILES): OCCc1c[nH]c2ccccc12 [compound 1, tryptophol]
